From US11932638B2, “Ion channel inhibitor compounds for cancer treatment” (Centre National de la Recherche Scientifique, priority 2017, dated 2024)
Like-named read-outs stand apart in the source and are kept apart here.

Target: T1, SK3 channel (Rattus norvegicus, UniProt P70605)
T1 construct: expressed in transfected cells
Assay: Conventional manual patch clamp on HEK-rSK3 cells, SK3 channel activity
Assay type: cell-based
Details: for inhibition at 0.5 µM: 500 nM
Excerpt: Cell Lines Used to Screen the Molecules on the Activity of SKCa Channels (Small Conductance Calcium-Activated Potassium Channel; SK1, SK2 and SK3) and IKCa Channels (Intermediate Conductance Calcium-Activated Potassium Channel, SK4)
Use was made of the HEK 293 T line, a foetal kidney line which was immortalised with the T antigen of the […] simian virus. This cell line is widely used on account of the ease with which these cells can be transfected with plasmids or other transfection vectors. Four stable lines were used for patch clamp experiments: HEK-hSK1, HEK-rSK2, HEK-rSK3 and HEK-IKCa/SK4 which respectively overexpress the SK1, SK2, SK3 and SK4 channels. The lines were obtained via stable transduction (Girault et al., Current Cancer Drug Targets, 2011, 11, 1111-25) and are those already routinely used to assay SK3 modulators (Potier et al. Br J Pharmacol. 2011 January; 162(2):464-79; Sevrain et al., Med. Chem. Commun., 2012, 3, 1471-1478; Sevrain et al., Organic & Biomolecular Chemistry, 2013 Jul. 21; 11(27):4479-87, Berthe W, Sevrain C M, Chantôme A, Bouchet A M, Gueguinou M, Fourbon Y, Potier-Cartereau M, Haelters J P, Couthon-Gourvès H, Vandier C, Jaffrès P A. ChemMedChem. 2016 Jul. 19; 11(14):1531-9). […] These lines therefore enabled us without difficulty to examine the effect of the molecules on the SK3 channel, and also the selectivity thereof by means of the patch clamp technique. The inhibitory activity of the non-toxic molecules was assayed on the activity of the SK3 channel. The selectivity of the molecules was determined by patch clamp on HEK cell models stably expressing the SK3 channel but also the SK1, SK2, SK3 or IKCa/SK4 channels.
Electrophysiology/Patch-Clamp
Patch clamp is a technique allowing measurement of the activity of ion channels by recording macroscopic (whole cell configuration) or microscopic (e.g. inside out configuration) ionic currents through the plasma membrane. For assay of the effect of the molecules on the SKCa/IKCa channels, two complementary techniques were used: conventional, manual patch clamp and automated patch clamp with the Nanion NPC-16 Patchliner Quattro (4 channels) (Potier et al., Mol Cancer Ther 2006, 5, 2946-53; Chantome et al., Exp Cell Res 2009, 315, 3620-30; Potier et al., Biochem Biophys Res Commun 2010, 397, 42-7; Girault et al., Current Cancer Drug Targets, 2011, 11, 1111-25; Sevrain et al., Med. Chem. Commun., 2012, 3, 1471-1478; Sevrain et al., Organic & Biomolecular Chemistry, 2013 Jul. 21; 11(27):4479-87; Chantome et al., Cancer Research, 2013 Aug. 1; 73(15):4852-61, Gueguinou M, Crottès D, Chantôme A, Rapetti-Mauss R, Potier-Cartereau M, Clarysse L, Girault A, Fourbon Y, Jézéquel P, Guérin-Charbonnel C, Fromont G, Martin P, Pellissier B, Schiappa R, Chamorey E, Mignen O, Uguen A, Borgese F, Vandier C, Soriani O. Oncogene. 2017 Jan. 23. doi: 10.1038/onc.2016.501, Berthe W, Sevrain C M, Chantôme A, Bouchet A M, Gueguinou M, Fourbon Y, Potier-Cartereau M, Haelters J P, Couthon-Gourvès H, Vandier C, Jaffrès P A. ChemMedChem. 2016 Jul. 19; 11(14):1531-9, Guéguinou M, Harnois T, Crottes D, Uguen A, Deliot N, Gambade A, Chantôme A, Haelters J P, Jaffrès P A, Jourdan M L, Weber G, Soriani O, Bougnoux P, Mignen O, Bourmeyster N, Constantin B, Lecomte T, Vandier C, Potier-Cartereau M. Oncotarget. 2016 Jun. 14; 7(24):36168-36184. doi: 10.18632/oncotarget.8786).
For conventional patch clamp, the micropipette is filled with an intrapipette medium—IPM (see composition below) and allows measurement of ionic currents at the same time as allowing maintaining of membrane potential (voltage clamp). The experimental device was composed of an anti-vibration table supporting an inverted microscope (Nikon, Eclipse TE 300). The Petri dish (Corning Incorporated, USA), containing the cells was placed on a plexiglass plate attached to the microscope stage. The pipette was connected to the amplifier (Axopatch 200B) as reference electrode which allowed closing of the electrical circuit. […]

inhibition at 10 µM (10 μM) [%]	inhibition at 0.05 µM (50 nM) [%]	inhibition at 0.5 µM [%]	inhibition at 0.1 µM (100 nM) [%]	Structure (SMILES)	other results
3.6				Clc1ccc(CNc2ncc3ncccc3n2)cc1Cl [Compound 4, N-(3,4-Dichlorobenzyl)pyrido[3,2-d]pyrimidin-2-amine]	
7.7				c1ccc2c(c1)CCCC2Nc1ncc2ncccc2n1 (stereo not drawn) [Compound 5, N-(1,2,3,4-Tetrahydronaphthalen-1-yl)pyrido[3,2-d]pyrimidin-2-amine]	
2.65				Clc1nc(NC2CCCc3ccccc32)c2ncccc2n1 (stereo not drawn) [Compound 6, 2-Chloro-N-(1,2,3,4-tetrahydronaphthalen-1-yl)pyrido[3,2-d]pyrimidin-4-amine]	
1.52				Clc1ccc(CNc2ncnc3cccnc23)cc1Cl [Compound 14, N-(3,4-Dichlorobenzyl)pyrido[3,2-d]pyrimidin-4-amine]	
	23.6	27.7		N#Cc1nc(NC2CCCc3ccccc32)c2ncccc2n1 (stereo not drawn) [Compound 32, 4-(1,2,3,4-tetrahydronaphthalen-1-ylamino)pyrido[3,2-d]pyrimidine-2-carbonitrile]	
71.5	30.5		53.2	Nc1nc(NC2CCCc3ccccc32)c2ncccc2n1 (stereo not drawn) [Compound 33, N^4-(1,2,3,4-tetrahydronaphthalen-1-yl)pyrido[3,2-d]pyrimidine-2,4-diamine]	
74	31.4		51.9	Clc1cnc2c(NC3CCCc4ccccc43)ncnc2c1 (stereo not drawn) [Compound 38, 7-Chloro-N-(1,2,3,4-tetrahydronaphthalen-1-yl)pyrido[3,2-d]pyrimidin-4-amine]	
7.54				c1ccc2c(c1)CCCC2Nc1ncnc2ncccc12 (stereo not drawn) [Compound 47, N-(1,2,3,4-Tetrahydronaphthalen-1-yl)pyrido[2,3-d]pyrimidin-4-amine]	
		75.8	37.1	Fc1nc(N[C@H]2CCCc3ccccc32)c2ncccc2n1 [Compound 49, (S)-2-Fluoro-N-(1,2,3,4-tetrahydronaphthalen-1-yl)pyrido [3,2-d]pyrimidin-4-amine]	inhibition at 0.25 µM (250 nM): 83.1%
54.4	32.1		46.8	c1ccc2c(c1)OCCC2Nc1ncnc2cccnc12 (stereo not drawn) [Compound 62, N-(3,4-dihydro-2H-1-benzopyran-4-yl)pyrido[3,2-d]pyrimidin-4-amine]	
		39.3	35.3	Cc1cc(C)n(-c2nc(NC3CCCc4ccccc43)c3ncccc3n2)n1 (stereo not drawn) [Compound 67, 2-(3,5-Dimethylpyrazol-1-yl)-N-tetralin-1-yl-pyrido[3,2-d]pyrimidin-4-amine]	inhibition at 1 µM (1 μM): 82.4%
	18.4	48.5		CCCCCCOc1cnc2c(NC3CCCc4ccccc43)ncnc2c1 (stereo not drawn) [Compound 74, 7-Hexoxy-N-tetralin-1-yl-pyrido[3,2-d]pyrimidin-3-ium-4-amine chloride]	
	-9.01	18		c1ccc2c(Nc3ncnc4cccnc34)cccc2c1 [Compound 86, N-(1-Naphtyl)pyrido[3,2-d]pyrimidin-4-amine]	
	22.9	47.4		c1ccc2c(c1)CCC2Nc1ncnc2cccnc12 (stereo not drawn) [Compound 87, N-(2,3-dihydro-1H-inden-1-yl)pyrido[3,2-d]pyrimidin-4-amine]	
	25.8	54.8		COc1cccc2c1CCCC2Nc1ncnc2cccnc12 (stereo not drawn) [Compound 88, N-(5-methoxy-1,2,3,4-tetrahydronaphthalen-1-yl)pyrido[3,2-d]pyrimidin-4-amine]	
	16.1	39.9		Fc1ccc2c(c1)C(Nc1ncnc3cccnc13)CCC2 (stereo not drawn) [Compound 90, N-(7-fluoro-1,2,3,4-tetrahydronaphthalen-1-yl)pyrido[3,2-d]pyrimidin-4-amine]	
71.8	45.9		53.5	CC1(C)CCC(Nc2ncnc3cccnc23)c2ccccc21 (stereo not drawn) [Compound 93, N-(4,4-dimethyl-1,2,3,4-tetrahydronaphthalen-1-yl)pyrido[3,2-d]pyrimidin-4-amine]	
83.8	30.7	46.9	57.9	COCOc1ccc2c(c1)CCCC2N (stereo not drawn) [Compound 103, 6-(Methoxymethoxy)-1,2,3,4-tetrahydronaphthalen-1-amine]	
54.7	29.7		46.8	OC1CCc2ccccc2C1Nc1ncnc2cccnc12 (stereo not drawn) [Compound 107, 1-(pyrido[3,2-d]pyrimidin-4-ylamino)-1,2,3,4-tetrahydro-naphthalen-2-ol]	
67.3	39		56.3	Clc1ccc2ncnc(N[C@H]3CCCc4ccccc43)c2n1 [Compound 133, 6-Chloro-N-[(1S)-tetralin-1-yl]pyrido[3,2-d]pyrimidin-4-amine]	
	35.3			OC1CCC(Nc2ncnc3cccnc23)c2ccccc21 (stereo not drawn) [Compound 142-E1, 4-(Pyrido[3,2-d]pyrimidin-4-ylamino)tetralin-1-ol]	% SK3 inhibition (100 nM, 0.1 µM): 100 nM: 44.55 ± 5.67 (N = 5) %; % SK3 inhibition (10 μM): 10 μM: 57.16 ± 5.51 (N = 4) %
				OC1CCC(Nc2ncnc3cccnc23)c2ccccc21 (stereo not drawn) [Compound 142-E2, 4-(Pyrido[3,2-d]pyrimidin-4-ylamino)tetralin-1-ol]	% SK3 inhibition (50 nM, 0.05 µM): 50 nM: 35.72 ± 1.79 (N = 4) %; % SK3 inhibition (100 nM, 0.1 µM): 100 nM: 59.42 ± 3.43 (N = 4) %; % SK3 inhibition (10 μM): 10 μM: 75.11 ± 2.87 (N = 4) %
				OC1CCC(Nc2ncnc3cccnc23)c2ccccc21 (stereo not drawn) [Compound 142-E3, 4-(Pyrido[3,2-d]pyrimidin-4-ylamino)tetralin-1-ol]	% SK3 inhibition (50 nM, 0.05 µM): 50 nM: 30.69 ± 3.07 (N = 4) %; % SK3 inhibition (100 nM, 0.1 µM): 100 nM: 49.71 ± 4.48 (N = 4) %; % SK3 inhibition (10 μM): 10 μM: 58.9 ± 6.08 (N = 4) %
				OC1CCC(Nc2ncnc3cccnc23)c2ccccc21 (stereo not drawn) [Compound 142-E4, 4-(Pyrido[3,2-d]pyrimidin-4-ylamino)tetralin-1-ol]	% SK3 inhibition: 10 μM: 48.28 ± 5.99 (N = 3) %; % SK3 inhibition (50 nM, 0.05 µM): 50 nM: 21.9 ± 2.32 (N = 3) %; % SK3 inhibition (100 nM, 0.1 µM): 100 nM: 37.97 ± 3.99 (N = 3) %
61.2	24.4		41.5	O=C1CCC(Nc2ncnc3cccnc23)c2ccccc21 (stereo not drawn) [Compound 152, 4-(Pyrido[3,2-d]pyrimidin-4-ylamino)tetralin-1-one]	
54	32		51.1	Fc1ccc2c(c1)CCCC2Nc1ncnc2cccnc12 (stereo not drawn) [Compound 157, N-(6-Fluorotetralin-1-yl)pyrido[3,2-d]pyrimidin-4-amine]	
84.8	35.8		64.1	Fc1cnc2c(N[C@H]3CCCc4ccccc43)ncnc2c1 [Compound 158, 7-Fluoro-N-[(1S)-tetralin-1-yl]pyrido[3,2-d]pyrimidin-4-amine]	
